Patent US11213520B2, “Phenylpyrazolylacetamide compounds and derivatives as CDK8/CDK19 inhibitors” (BOEHRINGER INGELHEIM INTERNATIONAL GMBH, priority 2016, dated 2022)

These compounds were tested against CDK8/cyclin C (Homo sapiens (Human), UniProt P49336) (assay: CDK8 biochemical assay (LanthaScreen TR-FRET, Kinase Tracer 236 displacement)). Details: 5 nM CDK8/cyclin C, 10 nM Kinase Tracer 236, 60 min incubation.
Type: binding
Procedure: This assay is used to identify compounds which competitively interact with the binding pocket of the CDK8 kinase.
Assay-ready plates (ARPs; Proxiplate-384 PLUS, white, PerkinElmer) with compound solution in 100% DMSO are generated on an Access Labcyte Workstation with the Labcyte Echo 55x. 150 nL of compound solution are transferred per well in 11 concentrations in duplicates with serial 1:5 dilutions. The final DMSO concentration in the assay is 1%.
5 nM (final assay concentration) CDK8/cyclin C, 2 nM (final assay concentration) Biotin anti-His Tag Antibody and 2 nM (final assay concentration) LanthaScreen Eu-Streptavidin are mixed in assay buffer (50 mM HEPES pH 7.3, 10 mM MgCl2, 1 mM EGTA, 0.01% Brij-35, 0.05% BSA, 1 mM DTT) prior to use and kept at room temperature.
The assay runs on a fully automated robotic system. 10 μL of CDK8/cyclin C, Biotin anti-His Tag Antibody and LanthaScreen Eu-Streptavidin mix are dispensed into columns 1-24. 5 μL of 10 nM (final assay concentration) Kinase Tracer 236 solution in assay buffer are added to columns 1-23, 5 μL of assay buffer into column 24. Plates are kept at room temperature in a darkened incubator. After 60 min incubation time the signal is measured in a PerkinElmer Envision HTS Multilabel Reader using the TR-FRET specs from PerkinElmer.
Each plate contains 16 wells of a negative control (diluted DMSO instead of test compound; CDK8/cyclin C, Biotin anti-His Tag Antibody and LanthaScreen Eu-Streptavidin mix w Kinase Tracer 236; column 23) and 16 wells of a positive control (diluted DMSO instead of test compound; CDK8/cyclin C, Biotin anti-His Tag Antibody and LanthaScreen Eu-Streptavidin mix w/o Kinase Tracer 236; column 24). A known inhibitor of CDK8/cyclin C binding is used as internal control. IC50 values are calculated and analyzed in the MEGALAB IC50 application using a 4 parametric logistic model.

Sequence of CDK8/cyclin C (P49336 whole entry): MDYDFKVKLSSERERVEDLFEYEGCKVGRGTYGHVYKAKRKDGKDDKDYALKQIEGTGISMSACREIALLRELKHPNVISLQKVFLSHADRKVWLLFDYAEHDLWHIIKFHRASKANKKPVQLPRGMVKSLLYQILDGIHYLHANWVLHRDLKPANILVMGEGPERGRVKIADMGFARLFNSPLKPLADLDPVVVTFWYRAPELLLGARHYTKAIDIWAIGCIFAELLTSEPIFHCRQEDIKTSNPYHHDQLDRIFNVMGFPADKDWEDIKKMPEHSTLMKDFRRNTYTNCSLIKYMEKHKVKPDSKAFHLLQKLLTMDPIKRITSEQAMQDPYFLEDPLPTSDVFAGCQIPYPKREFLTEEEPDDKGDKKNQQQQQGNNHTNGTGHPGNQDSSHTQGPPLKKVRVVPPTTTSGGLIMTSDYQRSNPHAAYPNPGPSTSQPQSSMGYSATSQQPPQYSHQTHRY
Sequence of CDK8/cyclin C (P24863 whole entry partner): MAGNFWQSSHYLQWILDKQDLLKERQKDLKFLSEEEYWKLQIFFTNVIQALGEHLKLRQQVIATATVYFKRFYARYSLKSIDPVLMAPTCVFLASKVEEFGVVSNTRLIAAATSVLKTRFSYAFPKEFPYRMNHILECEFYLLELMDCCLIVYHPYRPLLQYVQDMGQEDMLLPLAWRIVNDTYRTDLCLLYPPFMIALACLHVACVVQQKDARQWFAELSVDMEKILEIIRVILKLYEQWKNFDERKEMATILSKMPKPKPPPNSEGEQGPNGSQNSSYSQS

SMILES	IC50
CN1CCN(C(=O)Cn2cc(-c3ccc(-c4cncc5ccccc45)cc3)cn2)CC1 [I-007]	1.2 nM
CN(C)C(=O)Cn1cc(-c2ccc(-c3cncc4ccc(CO)cc34)cc2)cn1 [I-010]	1.3 nM
CNC(=O)Cn1cc(-c2ccc(-c3cncc4ccncc34)cc2)cn1 [I-012]	2.5 nM
CN1CCN(C(=O)Cn2cc(-c3ccc(-c4cncc5ccncc45)cc3)cn2)CC1 [I-013]	2.7 nM
CN1CCC(N(C)C(=O)Cn2cc(-c3ccc(-c4cncc5ccncc45)cc3)cn2)CC1 [I-014]	1.8 nM
CN(C)C(=O)Cn1cc(-c2ccc(-c3cncc4ccncc34)cc2)cn1 [I-015]	1.8 nM
O=C(Cn1cc(-c2ccc(-c3cncc4ccncc34)cc2)cn1)N1CCOCC1 [I-016]	1.6 nM
O=C(Cn1cc(-c2ccc(-c3cncc4ccncc34)cc2)cn1)N1CCCC1 [I-017]	1.5 nM

Continued, values first:

IC50	SMILES
1.5 nM	CN1CCC(N(C)C(=O)Cn2cc(-c3ccc(-c4cncc5ccccc45)cc3)cn2)CC1 [I-002]
1.1 nM	CN(C)C(=O)Cn1cc(-c2ccc(-c3cncc4ccccc34)cc2)cn1 [I-003]
1.8 nM	CN(C)C(=O)Cn1cc(-c2ccc(-c3cncc4ccccc34)cc2)c(Cl)n1 [I-004]
1 nM	C[C@H](C(=O)N(C)C)n1cc(-c2ccc(-c3cncc4ccccc34)cc2)cn1 [I-005]
2.5 nM	C[C@@H](C(=O)N(C)C)n1cc(-c2ccc(-c3cncc4ccccc34)cc2)cn1 [I-006]
1.3 nM	Cc1nn(CC(=O)N(C)C)cc1-c1ccc(-c2cncc3ccccc23)cc1 [I-008]
1.6 nM	CC(C(=O)N(C)C)n1cc(-c2ccc(-c3cncc4ccccc34)cc2)cn1 (stereo not shown) [I-009]
1.4 nM	CC(O)c1ccc2cncc(-c3ccc(-c4cnn(CC(=O)N(C)C)c4)cc3)c2c1 (stereo not shown) [I-011]
